Laboratory results: patent publication US8470776B2, “Conjugates of disorazoles and their derivatives with cell-binding molecules, novel disorazole derivatives, processes of manufacturing and uses thereof” (Aeterna Zentaris GmbH, priority 2006, dated 2013)
Converted amounts (≈) assume the structure as drawn. “And” between values parts separate entries of the source, which are not always exact repeats. Identical values can stand only once.

Tests used:
[1] = tested on: hGnRH-R negative cell line LTK−; assay: GnRH-receptor dependent proliferation assay, LTK-; type: cell-based; settings: 30 min exposure, vital cells vs untreated control = 100%
Experimental: (§1) The dose-dependent receptor-mediated inhibition of cell proliferation of selected compounds of the invention was investigated.
(§2) To study these effects a human GnRH receptor (hGnRH-R) positive cell line (5C6; Beckers et al., Eur. J. Biochem. 1995, 231: 535-543) and an hGnRH-R negative cell line (LTK^−; ECACC No. 85011432) was used.
(§3) Respective cells were exposed to 1 mL culture medium in 24 well multi-titer-plates (MTPs) with a cell number of 15000 cells per well. The cell number is adjusted in such a way that after 5 days of testing the untreated control cells are still in the exponential growth phase.
(§4) Test compounds are given to the cultured cells after 4 hours of initial growth (adherence) in a volume of 100 μL to yield the final concentrations given in table 2.
(§5) After 30 min of incubation at 37° C. the entire culture medium is sucked off and the cells are washed twice with culture medium without test compounds. After the washing the cells are placed into an incubator (at 37° C., 5% CO2 and 95% atmospheric humidity) and incubated for further 4 days.
(§6) For the determination of the cell number after incubation the cells are detached using trypsin/EDTA and centrifuged. The number of vital cells and the total cell number are counted using a Vi-Cell Analyzer (Beckman Coulter).
(§7) The number of vital cells is analyzed in comparison with untreated control cells (=100%). Only cell groups (respective wells) are considered of which the total cell viability is more than 90%, i.e. inhibition of cell proliferation by unspecific toxicity can be excluded.
(§8) The proliferation status of untreated control cells after 96 hours is set to 100%.

[2] = tested on: lung carcinoma cell line NCI-H460; assay: cells; type: cell-based, human; settings: XTT, 45 h incubation
Description: (§9) Selected compounds of the invention were investigated for their antiproliferative activity in a proliferation test on established tumor cell lines.
(§10) The test used determines the cellular dehydrogenase activity and makes possible a determination of the cell vitality and indirectly the cell count.
(§11) The cell lines used are the human cervical carcinoma cell line KB/HeLa (ATCC CCL17), the ovarian adenocarcinoma cell line SKOV-3 (ATCC HTB77), the human glioblastoma cell line SF-268 (NCI-503138) and the lung carcinoma cell line NCI-H460 (NCI-503473). In addition, for the investigation of the cell cycle-specific action of the compounds of the invention, an RKOp27 cell system was used (Schmidt M et al. Oncogene 2000, 19(20): 2423-2429). RKO is a human colon carcinoma cell line (ATCC CRL-2577), in which the cell cycle inhibitor p27^kip1 induced by means of the ecdysone expression system is expressed and can be led to a cell cycle arrest specifically in […]. A nonspecifically acting substance inhibits the proliferation independently of whether the RKO cell is or is not arrested in G1 or G2. Cell cycle-specific substances such as, for example, tubulin inhibitors are, however, only cytotoxic if cells are not arrested and the cell cycle is passed through.
(§12) The adherently growing tumor cell lines KB/HeLa, SKOV-3, SF-268 and NCI-H460 were cultured under standard conditions in an incubator at 37° C., 5% CO2 and 95% atmospheric humidity. On experimental day 1, the cells are detached using trypsin/EDTA and pelleted by centrifugation. Subsequently, the cell pellet is resuspended in the respective culture medium at the corresponding cell count and reacted in a 96-well microtiter plate. The plates are then cultured overnight in the incubator. The test substances are prepared as 1 mg/ml stock solutions in DMSO and diluted to the appropriate concentrations on experimental day 2 using culture medium. The substances in culture medium are then added to the cells and incubated in the incubator for 45 h. As a control, cells which are not treated with test substance are used. For the XTT assay, 1 mg/ml of XTT (sodium 3′-[1-(phenylaminocarbonyl)-3,4-tetrazolium]-bis(4-methoxy-6-nitro)benzenesulfonic acid) is dissolved in RPMI-1640 medium without Phenol Red. Additionally, a 0.383 mg/ml PMS (N-methyldibenzopyrazine methylsulfate) solution in phosphate-buffered saline solution (PBS) is prepared. On experimental day 4, 75 μl/well of XTT-PMS mixture is pipetted onto the cell plates which in the meantime have been incubated with the test substances for 45 h. For this, shortly before use, the XTT solution is mixed with the PMS solution in the ratio 50:1 (vol:vol). The cell plates are then incubated in the incubator for a further 3 h and the optical density (OD490 nm) is determined in a photometer. By means of the OD490 nm determined, the percentage inhibition is calculated relative to the control and plotted semilogarithmically in the form of a concentration-action curve. The IC50 is calculated by means of a regression analysis from the concentration-action curve using the program Graphpad Prism.

[3] = tested on: ovarian adenocarcinoma cell line SKOV-3; assay: cells; type: cell-based, human; settings: XTT, 45 h incubation
Description: as §9, §10, §11, §12

[4] = tested on: human cervical carcinoma cell line KB/HeLa; assay: cells; type: cell-based; settings: XTT, 45 h incubation
Description: as §9, §10, §11, §12

[5] = tested on: human glioblastoma cell line SF-268; assay: cells; type: cell-based; settings: XTT, 45 h incubation
Description: as §9, §10, §11, §12

[6] = tested on: human GnRH receptor (hGnRH-R) positive cell line 5C6; assay: GnRH-receptor dependent proliferation assay, 5C6; type: cell-based; settings: 30 min exposure, vital cells vs untreated control = 100%
Experimental: as §1, §2, §3, §4, §5, §6, §7, §8

[7] = tested on: RKOp27 cells (human colon carcinoma cell line RKO), p27kip1 induced; assay: cells; type: cell-based; settings: p27kip1 induced with 3 μM muristerone A, XTT, 45 h
Description: as §11, §12
(§13) The assay is carried out in 96-well plates. […] By comparison of the activity on induced and noninduced cells, conclusions on the mechanism of action (cell cycle specificity) of the therapeutics can be drawn. […] cells are inoculated in approximately three-fold higher cell count, since division no longer takes place during the assay in comparison with uninduced cells (20000 cells/well induced, 6250 cells/well not induced). The controls are untreated cells (+/−induction). The induction is carried out with 3 μM muristerone A. On the 1st day, the cells are exposed (+/−muristerone A) and incubated at 37° C. for 24 h. On day 2, the test substance is added (control DMSO) and incubation is continued at 37° C. for a further 45 h before a standard XTT assay is carried out.

[8] = tested on: RKOp27 cells (human colon carcinoma cell line RKO), p27kip1 not induced; assay: cells; type: cell-based; settings: without expression of p27kip1, XTT, 45 h
Description: as §11, §12, §13

Row | Compound | proliferation status after 96 hours, cell line LTK−, 100 nM [1] | IC50 NCI-H460 [2] [µg/mL] | IC50 SKOV-3 [3] [µg/mL] | IC50 KB/HELA [4] [µg/mL] | IC50 SF-268 [5] [µg/mL] | proliferation status after 96 hours, cell line 5C6, 100 nM [6] | IC50 RKOp27 induced [7] [µg/mL] | IC50 RKOp27 [8] | proliferation status after 96 hours, cell line LTK−, 0.1 nM [1] [%] | proliferation status after 96 hours, cell line LTK−, 1 nM [1] [%] | proliferation status after 96 hours, cell line LTK−, 10 nM [1] [%] | proliferation status after 96 hours, cell line 5C6, 0.1 nM [6] [%] | proliferation status after 96 hours, cell line 5C6, 1 nM [6] [%] | proliferation status after 96 hours, cell line 5C6, 10 nM [6] [%] | IC50 ([2]; Homo sapiens, NCI-H460, read-out: IC50 NCI-H460) [µg/mL] | IC50 ([3]; Homo sapiens, SK-OV-3, read-out: IC50 SKOV-3) [µg/mL] | IC50 ([4]; Homo sapiens, HeLa, read-out: IC50 KB/HELA) [µg/mL] | IC50 ([5]; Homo sapiens, SF-268, read-out: IC50 SF-268) [µg/mL] | IC50 ([7]; Homo sapiens, RKOp27, read-out: IC50 RKOp27 induced) [µg/mL] | IC50 ([8]; Homo sapiens, RKOp27, read-out: IC50 RKOp27) [µg/mL]
1 | COc1cccc2c1C(=O)c1c(O)c3c(c(O)c1C2=O)C[C@@](O)(C(=O)COC(=O)CCCC(=O)NCCCC[C@@H](NC(=O)[C@H](Cc1ccc(O)cc1)NC(=O)[C@H](CO)NC(=O)[C@H](Cc1c[nH]c2ccccc12)NC(=O)[C@H](Cc1c[nH]cn1)NC(=O)[C@@H]1CCC(=O)N1)C(=O)N[C@@H](CC(C)C)C(=O)N[C@@H](CCCNC(=N)N)C(=O)N1CCC[C@H]1C(=O)NCC(N)=O)C[C@@H]3O[C@H]1C[C@H](N)[C@H](O)[C@H](C)O1 [AN-152, reference compound] | 102.3% and 101.3% | 0.558 (≈ 0.295 µM) | 1.238 (≈ 0.654 µM) | 0.871 (≈ 0.46 µM) | 1.258 (≈ 0.665 µM) | 43.9% and 42.1% | 0.632 (≈ 0.334 µM) | 0.587 µg/mL (≈ 0.31 µM) |  |  |  |  |  |  |  |  |  |  |  | 
2 | C/C=C/[C@H](OC(=O)CCC(=O)NCCCC[C@H](NC(=O)[C@H](Cc1ccc(O)cc1)NC(=O)[C@H](CO)NC(=O)[C@H](Cc1c[nH]c2ccccc12)NC(=O)[C@H](Cc1cnc[nH]1)NC(=O)[C@@H]1CCC(=O)N1)C(=O)N[C@@H](CC(C)C)C(=O)N[C@@H](CCCNC(=N)N)C(=O)N1CCC[C@H]1C(=O)NCC(N)=O)C(C)(C)[C@@H]1C\C=C/C=C\C=C\[C@H](OC)Cc2nc(co2)C(=O)O[C@H](C(C)(C)[C@H](/C=C/C)OC(=O)CCC(=O)NCCCC[C@H](NC(=O)[C@H](Cc2ccc(O)cc2)NC(=O)[C@H](CO)NC(=O)[C@H](Cc2c[nH]c3ccccc23)NC(=O)[C@H](Cc2cnc[nH]2)NC(=O)[C@@H]2CCC(=O)N2)C(=O)N[C@@H](CC(C)C)C(=O)N[C@@H](CCCNC(=N)N)C(=O)N2CCC[C@H]2C(=O)NCC(N)=O)C/C=C\[C@H]2O[C@H]2/C=C/C=C\c2nc(co2)C(=O)O1 [compound 15, Disorazole A1 Bis Hemi Succinyl [D-Lys^6]LHRH] | 101.7% | >3.16 | >3.16 | >3.16 | >3.16 | 43.0% | >3.16 | ca. 3.16 μg/ml | 108.6 | 111.3 | 108.0 | 95.1 | 98.6 | 66.6 |  |  |  |  |  | 
3 | C/C=C/C(OC(=O)CCCC(=O)NCCCC[C@H](NC(=O)[C@H](Cc1ccc(O)cc1)NC(=O)[C@H](CO)NC(=O)[C@H](Cc1c[nH]c2ccccc12)NC(=O)[C@H](Cc1cnc[nH]1)NC(=O)[C@@H]1CCC(=O)N1)C(=O)N[C@@H](CC(C)C)C(=O)N[C@@H](CCCNC(=N)N)C(=O)N1CCC[C@H]1C(=O)NCC(N)=O)C(C)(C(=O)OC)C1C\C=C/C=C/C=C/c2nc(co2)C(=O)OC(C(C)(C(=O)OC)C(/C=C/C)OC(=O)CCCC(=O)NCCCC[C@H](NC(=O)[C@H](Cc2ccc(O)cc2)NC(=O)[C@H](CO)NC(=O)[C@H](Cc2c[nH]c3ccccc23)NC(=O)[C@H](Cc2cnc[nH]2)NC(=O)[C@@H]2CCC(=O)N2)C(=O)N[C@@H](CC(C)C)C(=O)N[C@@H](CCCNC(=N)N)C(=O)N2CCC[C@H]2C(=O)NCC(N)=O)C\C=C/C=C/C=C/c2nc(co2)C(=O)O1 (stereo partly drawn) [compound 17, Disorazole Z Bis Hemi Glutaryl [D-Lys^6]LHRH] | 98.0% | >3.16 | >3.16 | >3.16 | >3.16 | 41.7% | >3.16 | >3.16 µg/mL | 100.9 | 99.8 | 98.8 | 95.5 | 85.9 | 58.5 |  |  |  |  |  | 
4 | COc1cccc2c1C(=O)c1c(O)c3c(c(O)c1C2=O)C[C@@](O)(C(=O)CO)C[C@@H]3O[C@H]1C[C@H](N)[C@H](O)[C@H](C)O1 [doxorubicin, reference compound] |  |  |  |  |  |  |  |  |  |  |  |  |  |  | 0.105 (≈ 0.193 µM) | 0.347 (≈ 0.638 µM) | 0.32 (≈ 0.589 µM) | 0.305 (≈ 0.561 µM) | 0.124 (≈ 0.228 µM) | 0.082 (≈ 0.151 µM)
5 | Disorazole E1 Mono Hemi Succinyl [D-Lys^6]LHRH, Both Regio-Isomers [compounds 13/14] | 27.0% | 0.0128 | 0.01685 | 0.01891 | 0.05566 |  | >3.16 | 0.01724 µg/mL | 98.6 | 98.8 | 93.2 |  |  |  |  |  |  |  |  | 
